Experimental data as given in US20100190755A1, “TETRACYCLINE COMPOUNDS FOR THE TREATMENT OF RHEUMATOID ARTHRITIS AND RELATED METHODS OF TREATMENT” (priority 2008, published 2010).
Values after ≈ are worked out from the molar mass of the structure shown.

Tests used:
[1] = system: cytokines (IL-1, IL-6, RANKL and MCP-1) and a matrix metalloproteinase (MMP-9); experiment: Paw extract biomarker ELISA, CIA mice: whole panel (statements in words); format: in vivo, mouse
Method: (§1) • 1. Male DBA/1 mice were immunized i.d. with an emulsion of 200 μg bovine type II collagen in Complete Freund's Adjuvant. • 2. On day 21, mice received i.d. boost of 100 μg collagen in Incomplete Freund's Adjuvant • 3. Compounds were administered i.p. daily for 7 days starting from disease onset (day 3-4 after boost). • 4. Foot swelling was measured by an engineering micrometer and disease severity was scored accordingly (1, erythema and mild swelling confined to the tarsal or ankle joint; 2, erythema and mild swelling extending from the ankle to the mid-foot; 3, erythema and moderate swelling extending from the ankle to the metatarsal joints; 4, erythema and severe swelling encompassing the ankle, foot, and digits). • 5. Change (Δ) of paw thickness=sum of paw thickness from 4 paws of a mouse (experimental)−sum of baseline paw thickness from 4 paws of the same mouse. • 6. % inhibition=cumulative A paw thickness (disease group−compound-treated group)/cumulative A paw thickness (disease group)
(§2) • 1. Paws were collected from mice after 5-7 days of dosing and dissected free of skin. • 2. The paws were then homogenized in ice-cold PBS (2 ml/4 paws/mouse) containing 1× protease inhibitor using a Polytron homogenizer. • 3. Debris and particles were removed from the homogenized samples by centrifugation. • 4. Liquid layers were collected for MMP-9, IL-1, IL-6, RANKL, MCP-1, and TNFα analysis using ELISA kits from R & D System.

E. coli 25922 = experiment: Antibacterial activity MIC, Gram- (Table 9); format: cell-based; conditions: Escherichia coli, CAMHB, 35° C., approximately 18 hr
Method: (§3) 2 mg of each compound is dissolved in 100 μl of DMSO. The solution is then added to cation-adjusted Mueller Hinton broth (CAMHB), which results in a final compound concentration of 200 μg per ml. The tetracycline compound solutions are diluted to 50 μL volumes, with a test compound concentration of 0.098 μg/ml. Optical density (OD) determinations are made from fresh log-phase broth cultures of the test strains. Dilutions are made to achieve a final cell density of 1×10^6 CFU/ml. At OD=1, cell densities for different genera should be approximately:
(§4) 50 μl of the cell suspensions are added to each well of microtiter plates. The final cell density should be approximately 5×10^5 CFU/ml. These plates are incubated at 35° C. in an ambient air incubator for approximately 18 hr. The plates are read with a microplate reader and are visually inspected when necessary. The MIC is defined as the lowest concentration of the tetracycline compound that inhibits growth.

[2] = system: collagen-induced arthritis (CIA) in male DBA/1 mice; experiment: Murine collagen-induced arthritis (CIA) model, Example 2; format: in vivo, mouse
Method: Four non-antibacterial analogues of minocycline (J, W, AF and AT) were synthesized and tested in the murine model of the disease, collagen-induced arthritis (CIA) (See supra). Male DBA/1 mice were immunized intradermally with 200 μg of bovine type II collagen and boosted with collagen three weeks later. Minocycline and four non-antibacterial minocycline derivatives were administered i.p. beginning after disease onset. Paw thickness was measured and animals were scored daily.
as §1

[3] = system: collagen-induced arthritis (CIA) in male DBA/1 mice; experiment: CIA model, Example 3 (cumulative scores vs untreated controls); format: in vivo; conditions: Mus musculus
Method: The CIA model data were acquired according to the following protocol: • 1. Male DBA/1 mice were anaesthetized by i.p. injection of ketamine/xylazine (1.25 mg/ml:0.25 mg/ml, 100 μl/mouse). • 2. Anaesthetized mice were immunized intradermally at the base of the tail with 0.1 or 0.2 ml of an emulsion composed of 100 or 200 μg bovine type II collagen in Complete Freund's Adjuvant (50 μl/spot x 2 or 4 spots). • 3. At day 21 after the immunization, mice received an intradermal boost of 100 μl of an emulsion composed of 100 μg bovine type II collagen in Incomplete Freund's Adjuvant (50 μl/spot x 2 spots) • 4. After onset of disease symptoms (usually 3-4 days after boost), tetracycline derivatives were administered daily into mice via intraperitoneal or oral routes for 8 to 15 days. Methotrexate (12 mg/kg/day) or dexmethasone (4 mg/kg/day) was used as a control for inflammation suppression. • 5. The disease severity was scored daily for 8-15 days after the appearance of the symptoms. Disease severity was graded as following: • a. Visual clinical score for the presence of inflammation in the fingers/toes of the forepaws and hindpaws: • 1. Erythema and mild swelling confined to the mid-foot (tarsals) or ankle joint • 2. Erythema and mild swelling extending from the ankle to the mid-foot • 3. Erythema and moderate swelling extending from the ankle to the metatarsal joints • 4. Erythema and severe swelling encompassing the ankle, foot, and digits. • b. Clinical swelling score for the presence of paw edema in the forepaws and hindpaws: • Paw thickness was measured daily by an engineering micrometer after isofluorane inhalation or ketamine/xylazine (1.25 mg/ml:0.25 mg/ml, 100 μl/mouse) i.p. injection.
Daily scores and paw swelling measurements for each treatment group of mice were added over the total observation period to obtain a cumulative score. Cumulative scores were compared between untreated controls and treated groups to determine tetracycline-induced inhibition.

[4] = system: Protein synthesis (E. coli S30 Extract System); experiment: Protein synthesis inhibition, in vitro transcription/translation assay (E. coli S30 Extract System for Circular DNA); format: biochemical
[5] = Pharmacokinetics in rats after i.v. and oral dosing; format: in vivo; conditions: rat
Method: Pre-cannulated (jugular vein and carotid artery for i.v. group and carotid artery for oral group) male CD/IGS rats (approximately 250 g) were used. Rats were fasted overnight prior to dosing with access to food restored 2 hours after dosing. Rats were administered with approximately 0.25 mL compound (1 mg/kg dose) for i.v. route (via jugular vein over 20 seconds) or 0.5 mL solution (5 mg/kg dose) orally. Blood (300 μL) was collected in tubes with EDTA anticoagulant at various time points, centrifuged and plasma collected and stored frozen at −20° C. Animals were euthanized by CO2 following the final blood collection. Plasma was extracted (0.1% trifluoroacetic acid in 67% acetonitrile/33% water) and levels of compound quantified by HPLC/MS against a standard curve.

[6] = system: E. coli ATCC25922 (tetracycline sensitive); experiment: E. coli MIC, broth micro-dilution per CLSI guidelines (Table 3); format: cell-based
S. aureus RN450 = experiment: Antibacterial activity MIC, Gram+ (Table 9); format: cell-based; conditions: Staphylococcus aureus, CAMHB, 35° C., approximately 18 hr
Method: as §3, §4

RANKL = experiment: Paw extract biomarker ELISA, CIA mice: RANKL; format: in vivo, mouse; conditions: paw extracts from CIA mice
Method: as §1, §2

IL-6 = experiment: Paw extract biomarker ELISA, CIA mice: IL-6; format: in vivo, mouse; conditions: paw extracts from CIA mice
Method: as §1, §2

MMP-9 = experiment: Paw extract biomarker ELISA, CIA mice: MMP-9; format: in vivo, mouse; conditions: paw extracts from CIA mice
Method: as §1, §2

MCP-1 = experiment: Paw extract biomarker ELISA, CIA mice: MCP-1; format: in vivo, mouse; conditions: paw extracts from CIA mice
Method: as §1, §2

IL-1 = experiment: Paw extract biomarker ELISA, CIA mice: IL-1; format: in vivo, mouse; conditions: paw extracts from CIA mice
Method: as §1, §2

[7] = 25 mg/kg/day i.p., dosed after disease onset

CN(C)c1cc(-c2cccn2C)c(O)c2c1C[C@H]1C[C@H]3CC(O)=C(C(N)=O)C(=O)[C@@]3(O)C(O)=C1C2=O [Compound AT]
inhibition of inflammatory/osteoclastic cytokines (MMP-9, IL-1, IL-6, MCP-1, RANKL) in vivo [1]: better than minocycline | MIC (E. coli 25922): > 64 µg/mL | % Inhibition (Change in Paw Thickness) AVG [2, 7]: 81% | % Inhibition (Clinical Score) AVG [2, 7]: 70% | EC50 in inflammation suppression in CIA mice ([2]; CIA mice, i.p. daily): 12 mg/kg/day i.p. | Change in Paw Thickness (mm) Mean ([2]; day 1 of dosing, 25 mg/kg/day i.p.): 0.94 mm | Change in Paw Thickness (mm) Mean ([2]; day 2 of dosing, 25 mg/kg/day i.p.): 0.57 mm | Change in Paw Thickness (mm) Mean ([2]; day 3 of dosing, 25 mg/kg/day i.p.): 0.55 mm | Change in Paw Thickness (mm) Mean ([2]; day 4 of dosing, 25 mg/kg/day i.p.): 0.11 mm | Change in Paw Thickness (mm) Mean ([2]; day 5 of dosing, 25 mg/kg/day i.p.): 0.05 mm | Change in Paw Thickness (mm) Mean ([2]; day 6 of dosing, 25 mg/kg/day i.p.): 0.27 mm | Change in Paw Thickness (mm) Mean ([2]; day 7 of dosing, 25 mg/kg/day i.p.): −0.01 mm | Change in Paw Thickness (mm) Mean ([2]; day 8 of dosing, 25 mg/kg/day i.p.): −0.08 mm | Effects on reduction of paw swelling and clinical score compared to either minocycline or methotrexate ([2]; murine CIA model): greater | joint inflammation when administered after disease onset ([2]; murine CIA model): inhibited joint inflammation | inhibition in vivo at 6 mg/kg ([3]; Dose 6 mg/kg): 45% | inhibition in vivo at 12 mg/kg ([3]; Dose 12 mg/kg): 49% | inhibition in vivo at 25 mg/kg ([3]; Dose 25 mg/kg): 81% | IC50 [4]: > 100 µM | bioavailability ([5]; male, CD/IGS, plasma, after oral dosing of 5 mg/kg, read-out: PK Parameters (Rat) % F, fraction of absorption): 42% | bio-available after oral dosing in rats ([5]; oral): bio-available | half-life ([5]; plasma, male CD/IGS rats, 1 mg/kg i.v. or 5 mg/kg oral, read-out: PK Parameters (Rat) T1/2 (converted)): 6.4 h | anti-bacterial activity compared to minocycline [6]: no anti-bacterial activity | MIC ([6]; Escherichia coli, E. coli ATCC25922, cation-adjusted Mueller Hinton broth): > 64 µg/mL | MIC (S. aureus RN450): 1 µg/mL (≈ 2.03 µM)

C[C@@H]1C[C@H]2[C@@H]3CCC4=CC(=O)C=C[C@]4(C)[C@@]3(F)[C@@H](O)C[C@]2(C)[C@@]1(O)C(=O)CO [Dexamethasone, dexamethasone, reference compound]
Percent level of Biomarker Tissue [c] Compared to Untreated Control, RANKL AVG (RANKL): 10% | Percent level of Biomarker Tissue [c] Compared to Untreated Control, IL-6 AVG (IL-6): 4% | % Inhibition (Change in Paw Thickness) AVG ([2]; 4 mg/kg): 82% | % Inhibition (Clinical Score) AVG ([2]; 4 mg/kg): 48% | Change in Paw Thickness (mm) Mean ([2]; day 1 of dosing, 4 mg/kg/day i.p.): 0.92 mm | Change in Paw Thickness (mm) Mean ([2]; day 2 of dosing, 4 mg/kg/day i.p.): 0.57 mm | Change in Paw Thickness (mm) Mean ([2]; day 3 of dosing, 4 mg/kg/day i.p.): 0.47 mm | Change in Paw Thickness (mm) Mean ([2]; day 4 of dosing, 4 mg/kg/day i.p.): −0.07 mm | Change in Paw Thickness (mm) Mean ([2]; day 5 of dosing, 4 mg/kg/day i.p.): 0.03 mm | Change in Paw Thickness (mm) Mean ([2]; day 6 of dosing, 4 mg/kg/day i.p.): −0.13 mm | Change in Paw Thickness (mm) Mean ([2]; day 7 of dosing, 4 mg/kg/day i.p.): 0.04 mm | Change in Paw Thickness (mm) Mean ([2]; day 8 of dosing, 4 mg/kg/day i.p.): −0.21 mm | Percent level of Biomarker Tissue [c] Compared to Untreated Control, MMP-9 AVG (MMP-9): 35% | Percent level of Biomarker Tissue [c] Compared to Untreated Control, MCP-1 AVG (MCP-1): 5% | Percent level of Biomarker Tissue [c] Compared to Untreated Control, IL-1 AVG (IL-1): 16%
